From publication PMC7136958, “Targeting the pregnane X receptor using microbial metabolite mimicry” (EMBO Molecular Medicine, 2020) come the findings set out here.

SMILES strings stand for the structures.

The target in one data set is T1, PXR (Homo sapiens, UniProt O75469).
T1 sequence (O75469 1-434): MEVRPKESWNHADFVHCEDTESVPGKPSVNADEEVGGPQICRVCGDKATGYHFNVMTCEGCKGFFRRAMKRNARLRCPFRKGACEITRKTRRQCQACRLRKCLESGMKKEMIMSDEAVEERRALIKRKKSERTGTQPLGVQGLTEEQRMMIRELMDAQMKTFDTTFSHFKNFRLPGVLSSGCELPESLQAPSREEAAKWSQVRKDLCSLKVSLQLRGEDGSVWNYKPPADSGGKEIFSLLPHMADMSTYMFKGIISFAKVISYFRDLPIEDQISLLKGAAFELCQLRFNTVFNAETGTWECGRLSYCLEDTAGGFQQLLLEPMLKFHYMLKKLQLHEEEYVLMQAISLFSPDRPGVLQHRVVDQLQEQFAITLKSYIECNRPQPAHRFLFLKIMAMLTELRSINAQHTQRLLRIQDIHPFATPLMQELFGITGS
The experiment in a line: PXR reporter (p3A4-luc luciferase) assay in LS180 cells transiently transfected with wild-type PXR. As to conditions: for FOLD INDUCTION of PXR reporter luciferase activity: 24 h, over UT. As for the experimental part:
Incubations were performed in four technical replicates. After the treatments, cells were lysed and luciferase activity was measured on Tecan Infinite M200 Pro plate reader (Schoeller Instruments, Prague, Czech Republic). The data are expressed as fold induction ± SD of luciferase activity over the control cells (agonistic mode—in the absence of a model ligand) or as a percentage of maximal activation ± SD (antagonistic mode—in the presence of a model ligand). […] For all the transfection experiments, specifically multiplexed transfections, the control wells were mock‐transfected ([…]). However, to exclude non‐specific binding of PXR (or other factors) upstream of the luciferase gene within non‐PXR‐binding elements, we performed pilot experiments in different cell passages (P11, P14, and P17) of LS174T cells using a mock luciferase plasmid (luciferase not containing an upstream PXR‐binding element of the CYP3A4 promoter).

Another data set has as its target T2, AhR (Homo sapiens, UniProt P35869).
T2 construct: endogenous in cells; host or cells: AZ-AHR (HepG2)
T2 sequence (P35869 11-848): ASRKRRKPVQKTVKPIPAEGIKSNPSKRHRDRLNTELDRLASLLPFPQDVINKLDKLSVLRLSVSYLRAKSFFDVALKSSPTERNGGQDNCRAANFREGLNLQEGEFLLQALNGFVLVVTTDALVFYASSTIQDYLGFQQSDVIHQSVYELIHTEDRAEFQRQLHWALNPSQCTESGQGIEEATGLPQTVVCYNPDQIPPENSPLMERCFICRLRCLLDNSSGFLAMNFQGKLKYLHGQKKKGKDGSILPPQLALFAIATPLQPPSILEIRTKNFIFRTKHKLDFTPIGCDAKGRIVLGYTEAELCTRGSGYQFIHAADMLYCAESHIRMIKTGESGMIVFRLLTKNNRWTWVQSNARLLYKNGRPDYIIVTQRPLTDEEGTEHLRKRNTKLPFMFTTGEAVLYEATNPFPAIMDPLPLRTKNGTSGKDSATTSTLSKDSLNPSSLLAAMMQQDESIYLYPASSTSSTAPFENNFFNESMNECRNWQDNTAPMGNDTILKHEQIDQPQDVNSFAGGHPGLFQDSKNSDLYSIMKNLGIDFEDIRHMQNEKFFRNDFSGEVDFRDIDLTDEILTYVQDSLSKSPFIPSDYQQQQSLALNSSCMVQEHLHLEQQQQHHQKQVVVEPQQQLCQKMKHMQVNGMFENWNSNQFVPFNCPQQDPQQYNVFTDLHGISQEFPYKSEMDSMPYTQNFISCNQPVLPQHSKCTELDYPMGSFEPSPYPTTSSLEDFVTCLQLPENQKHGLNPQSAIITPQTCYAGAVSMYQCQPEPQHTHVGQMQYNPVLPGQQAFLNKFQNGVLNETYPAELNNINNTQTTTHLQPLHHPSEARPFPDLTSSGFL
The experiment in a line: AhR reporter assay, HepG2 cells stably expressing pCYP1A1 luciferase (AZ-AHR). Type of data set: cell-based. As for the experimental part: Incubations were performed in four technical replicates.
On the technique in general: Reporter assays use an easily measured gene product as a stand-in for the process of interest.

Where [1] appears, read: AZ-AHR cells, 1 nM, fold vs DMSO.
The mark [2] stands for this setting: AZ-AHR cells, 10 nM, fold vs DMSO.
Setting [3] is: AZ-AHR cells, 100 nM, fold vs DMSO.
Where [4] appears, read: AZ-AHR cells, 1µM, fold vs DMSO.
The mark [5] stands for this setting: AZ-AHR cells, 10 µM, fold vs DMSO.
[6] abbreviates: LS180, read-out: FOLD INDUCTION of PXR reporter luciferase activity.

For `OC(Cc1cc2ccccc2[nH]1)(c1ccncc1)c1cc2ccccc2[nH]1` (stereo not drawn) [FKK10], the “aver (mean luciferase signal of H1-H4)” value on PXR (1 nM) amounted to 4648.0; on PXR (10 nM), 3990.3; at PXR (100 nM), 4278.0; at PXR (1 uM), 3689.5; at PXR (10 uM), 16756.3; at PXR (25 uM) it was 52110.3. For the same compound, the “FOLD INDUCTION of PXR reporter luciferase activity” value came out at 1.3 fold on PXR (1 nM); 1.1 fold on PXR (10 nM); 1.2 fold at PXR (100 nM); 1.1 fold at PXR (1 uM); 4.8 fold at PXR (10 uM); 15.0 fold on PXR (25 uM). At AhR, the “AhR activation (in words)” value is on record as “variable degrees of dose‐dependent AhR activation profiles”. Besides, the “FOLD INDUCTION (AZ-AHR luciferase)” value at AhR (setting [1]) is given as 0.5 fold; at AhR (setting [2]) it was 0.318 fold; on AhR (setting [3]), 0.8 fold; on AhR (setting [4]), 1.3 fold; at AhR (setting [5]), 21.9 fold.

With `O=S(=O)(c1ccccc1)n1c(C(O)Cc2cc3ccccc3[nH]2)cc2ccccc21` (racemic) [FKK8], the “aver (mean luciferase signal of H1-H4)” value at PXR (1 nM) is listed as 3847.5; at PXR (10 nM), 4121.3; at PXR (100 nM), 8608.8; on PXR (1 uM) it was 58017.5; on PXR (10 uM) it was 99864.5; at PXR (25 uM), 75044.8. Moreover, the “FOLD INDUCTION of PXR reporter luciferase activity” value was 1.0 fold on PXR (1 nM); 1.1 fold on PXR (10 nM); 2.3 fold at PXR (100 nM); 15.3 fold on PXR (1 uM); 26.3 fold at PXR (10 uM); 19.7 fold at PXR (25 uM). Moreover, the “AhR activation (in words)” value on AhR is listed as “variable degrees of dose‐dependent AhR activation profiles”. For the same compound, the “FOLD INDUCTION (AZ-AHR luciferase)” value on AhR (setting [1]) turned out to be 0.6 fold; on AhR (setting [2]), 0.7 fold; on AhR (setting [3]) it was 1.1 fold; on AhR (setting [4]), 2.3 fold; on AhR (setting [5]), 40.8 fold.

`OC(c1ccncc1)(c1cc2ccccc2[nH]1)c1cc2ccccc2[nH]1` [FKK2]: the “aver (mean luciferase signal of H1-H4)” value amounted to 2792.0 at PXR (1 nM); 2989.5 at PXR (10 nM); 3008.8 on PXR (100 nM); 7365.5 at PXR (1 uM); 41425.5 on PXR (10 uM); 32321.0 on PXR (25 uM). Also, the “FOLD INDUCTION of PXR reporter luciferase activity” value at PXR (1 nM) is reported as 1.3 fold; on PXR (10 nM), 1.4 fold; at PXR (100 nM), 1.4 fold; at PXR (1 uM), 3.4 fold; at PXR (10 uM), 19.4 fold; on PXR (25 uM), 15.1 fold. At AhR (10 μM), this compound showed an AhR activation of more than 100 fold. The “FOLD INDUCTION (AZ-AHR luciferase)” value at AhR (setting [1]) is 0.9 fold; on AhR (setting [2]), 0.9 fold; at AhR (setting [3]) it was 2.1 fold; on AhR (setting [4]) it was 15.0 fold; on AhR (setting [5]), 467.5 fold.

As to `CC#CC(O)(c1ccncc1)c1cc2ccccc2n1S(=O)(=O)c1ccccc1` (racemic) [FKK3], the “aver (mean luciferase signal of H1-H4)” value is 5303.8 on PXR (1 nM); 3556.8 on PXR (10 nM); 7075.5 on PXR (100 nM); 50228.8 at PXR (1 uM); 65270.5 at PXR (10 uM); 57813.0 at PXR (25 uM). For the same compound, the “FOLD INDUCTION of PXR reporter luciferase activity” value on PXR (1 nM) is 2.5 fold; at PXR (10 nM), 1.7 fold; at PXR (100 nM), 3.3 fold; at PXR (1 uM), 23.5 fold; on PXR (10 uM), 30.5 fold; on PXR (25 uM), 27.0 fold. Moreover, the “AhR activation (in words)” value at AhR is reported as “variable degrees of dose‐dependent AhR activation profiles”. The “FOLD INDUCTION (AZ-AHR luciferase)” value was found to be 0.8 fold on AhR (setting [1]); 0.7 fold on AhR (setting [2]); 0.9 fold on AhR (setting [3]); 1.1 fold on AhR (setting [4]); 5.3 fold on AhR (setting [5]).

Take `Cc1[nH]c2ccccc2c1C(c1c(C)[nH]c2ccccc12)c1c(C)[nH]c2ccccc12` [FKK999, reference compound]: the “aver (mean luciferase signal of H1-H4)” value is on record as 2509.3 at PXR (1 nM); 3525.3 on PXR (10 nM); 5905.5 on PXR (100 nM); 26021.5 at PXR (1 uM); 42646.5 on PXR (10 uM); 44375.0 on PXR (25 uM). At PXR (50 uM), the “aver (mean luciferase signal of H1-H4)” value is listed as 44986.8. Moreover, on PXR (setting [6]), the fold induction at 0.001 µM was found to be 1.39. In addition, the fold induction at 0.01 µM at PXR (setting [6]) worked out at 1.95. Besides, at PXR (setting [6]), the fold induction at 0.1 µM was 3.27. For the same compound, the fold induction at 1 µM on PXR (setting [6]) came out at 14.4. At PXR (setting [6]), the fold induction at 10 µM stood at 23.6. Moreover, the fold induction at 25 µM at PXR (setting [6]) came out at 24.5. Moreover, the fold induction at 50 µM on PXR (setting [6]) worked out at 24.9. For the same compound, at PXR (cell-based transactivation), the “PXR activation (in words)” value is on record as “activated PXR”. In addition, the “AhR activation (in words)” value at AhR is on record as “variable degrees of dose‐dependent AhR activation profiles”. This compound came in with a fold induction at 24 h, 0.001 µM on AhR (human, AZ-AHR cells, 1 nM, fold vs DMSO) of 1. The compound further returned a fold induction at 24 h, 0.01 µM at AhR (human, AZ-AHR cells, 10 nM, fold vs DMSO) of 1. The fold induction at 24 h, 0.1 µM on AhR (human, AZ-AHR cells, 100 nM, fold vs DMSO) is 3.5. Moreover, on AhR (human, AZ-AHR cells, 1µM, fold vs DMSO), the fold induction at 24 h, 1 µM is 10.2. This compound came in with a fold induction at 24 h, 10 µM on AhR (human, AZ-AHR cells, 10 µM, fold vs DMSO) of 28.2.
